Columns and labels:
Assay type in all cases: in vivo
[1] = system: sedge, umbrella (small-flower umbrella sedge, Cyperus difformis); assay: Test B flooded paddy test; details: Cyperus difformis, Flood, 250 g ai/ha; scale of 0 to 100 where 0 is no effect and 100 is complete control; read-out: Sedge, Umbrella plant response rating
In short: (§1)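 Percent control, visually estimated after 13–15 d in the greenhouse on a 0–100 basis, compares treated pots with untreated ones; compound was put into paddy water 3 cm above the soil when plants had two leaves.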

[2] = system: barnyardgrass (Echinochloa crus-galli); assay: Test B flooded paddy test; details: Echinochloa crus-galli, Flood, 250 g ai/ha; scale of 0 to 100 where 0 is no effect and 100 is complete control; read-out: Barnyardgrass plant response rating
In short: as §1

rice (Oryra sativa) = assay: Test B flooded paddy test; details: Oryza sativa, Flood, 250 g ai/ha; scale of 0 to 100 where 0 is no effect and 100 is complete control; read-out: Rice plant response rating
In short: as §1

[3] = system: ducksalad (Heteranthera limosa); assay: Test B flooded paddy test; details: Heteranthera limosa, Flood, 250 g ai/ha; scale of 0 to 100 where 0 is no effect and 100 is complete control; read-out: Ducksalad plant response rating
In short: as §1

[4] = system: ragweed (common ragweed, Ambrosia elatior); assay: Test A preemergence; details: Ambrosia artemisiifolia, pre-emergence, 240 h; for pest or weed control at 125 g/ha: 125 g ai/ha, preemergence, 0 to 100 scale where 0 is no effect and 100 is complete control, read-out: Ragweed plant response rating; for pest or weed control at 500 g/ha: 500 g ai/ha, Preemergence, visual injury vs untreated controls after approximately 10 d, read-out: Ragweed plant response rating (0 to 100 scale where 0 is no effect and 100 is complete control)
In short: (§2)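 Each rating is a visual injury score from 0 to 100 given about 10 d after treatment, judged against untreated controls kept alongside in the greenhouse. In loam soil–sand blend, seeds got a preemergence directed soil spray, while postemergence plants were 2 to 10 cm tall at spraying.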

[5] = system: giant foxtail (Setaria faberii); assay: Test A postemergence; details: Setaria faberi, post-emergence, 240 h, 125 g ai/ha, Postemergence; visual injury after approximately 10 d; 0 to 100 scale where 0 is no effect and 100 is complete control; read-out: Plant response rating, Foxtail, Giant
In short: as §2

[6] = system: pigweed (Amaranthus retroflexus); assay: Test A postemergence; details: Amaranthus retroflexus, post-emergence, 240 h, 125 g ai/ha, Postemergence; visual injury after approximately 10 d; 0 to 100 scale where 0 is no effect and 100 is complete control; read-out: Plant response rating, Pigweed
In short: as §2

[7] = system: ryegrass, Italian (Italian ryegrass, Lolium multiflorum); assay: Test A postemergence; details: Lolium multiflorum, post-emergence, 240 h, 125 g ai/ha, Postemergence; visual injury after approximately 10 d; 0 to 100 scale where 0 is no effect and 100 is complete control; read-out: Plant response rating, Ryegrass, Italian
In short: as §2

Kochia (Kochia scoparia) = assay: Test A postemergence; details: Bassia scoparia, post-emergence, 240 h, 125 g ai/ha, Postemergence; visual injury after approximately 10 d; 0 to 100 scale where 0 is no effect and 100 is complete control; read-out: Plant response rating, Kochia
In short: as §2

[8] = system: barnyardgrass (Echinochloa crus-galli); assay: Test A postemergence; details: Echinochloa crus-galli, post-emergence, 240 h, 125 g ai/ha, Postemergence; visual injury after approximately 10 d; 0 to 100 scale where 0 is no effect and 100 is complete control; read-out: Plant response rating, Barnyardgrass
In short: as §2

[9] = system: ragweed (common ragweed, Ambrosia elatior); assay: Test A postemergence; details: Ambrosia artemisiifolia, post-emergence, 240 h, 125 g ai/ha, Postemergence; visual injury after approximately 10 d; 0 to 100 scale where 0 is no effect and 100 is complete control; read-out: Plant response rating, Ragweed
In short: as §2

[10] = system: Galium (catchweed bedstraw, Galium aparine); assay: Test A postemergence; details: Galium, post-emergence, 240 h, 125 g ai/ha, Postemergence; visual injury after approximately 10 d; 0 to 100 scale where 0 is no effect and 100 is complete control; read-out: Plant response rating, Galium
In short: as §2

[11] = system: blackgrass (Alopecurus myosuroides); assay: Test A postemergence; details: Alopecurus myosuroides, post-emergence, 240 h, 125 g ai/ha, Postemergence; visual injury after approximately 10 d; 0 to 100 scale where 0 is no effect and 100 is complete control; read-out: Plant response rating, Blackgrass
In short: as §2

corn (Zea mays) = assay: Test A postemergence; details: Zea mays, post-emergence, 240 h, 125 g ai/ha, Postemergence; visual injury after approximately 10 d; 0 to 100 scale where 0 is no effect and 100 is complete control
In short: as §2

[12] = system: wheat (Triticum aestivum); assay: Test A postemergence; details: Triticum aestivum, post-emergence, 240 h, 125 g ai/ha, Postemergence; visual injury after approximately 10 d; 0 to 100 scale where 0 is no effect and 100 is complete control; read-out: Plant response rating, Wheat
In short: as §2

| Structure (SMILES) | pest or weed control at 250 g/ha [1] [%] | pest or weed control at 250 g/ha [2] [%] | pest or weed control at 250 g/ha (rice (Oryra sativa)) [%] | pest or weed control at 250 g/ha [3] [%] | pest or weed control at 125 g/ha [4] [%] | pest or weed control at 500 g/ha [4] [%] | pest or weed control at 125 g/ha [5] [%] | pest or weed control at 125 g/ha [6] [%] | pest or weed control at 125 g/ha [7] [%] | pest or weed control at 125 g/ha (Kochia (Kochia scoparia)) [%] | pest or weed control at 125 g/ha [8] [%] | pest or weed control at 125 g/ha [9] [%] | pest or weed control at 125 g/ha [10] [%] | pest or weed control at 125 g/ha [11] [%] | Corn plant response rating (crop injury, 0 = no effect, 100 = complete kill) at 125 g/ha (corn (Zea mays)) [%] | plant injury at 125 g/ha [12] [%] |
| --- | --- | --- | --- | --- | --- | --- | --- | --- | --- | --- | --- | --- | --- | --- | --- | --- |
| CN1C[C@H](c2ccc(C(F)(F)F)cc2)[C@@H](C(=O)Nc2ccccc2[S+](C)[O-])C1=O (stereo partly shown) [Compound 915] | 0 | 40 | 20 | 100 | 80 | 90 | 90 | 60 | 30 | 20 | 90 | 30 | 50 | 40 | 0 | 40 |
| CON1CC[C@H](c2ccc(F)cc2)[C@@H](C(=O)Nc2cccc(F)c2F)C1=O [Compound 918] | 0 | 0 | 15 | 30 | 0 | 0 | 0 | 0 | 0 | 0 | 0 | 0 | 0 | 40 | 0 | 0 |
| CN1CC[C@H](c2cccc(C(F)(F)F)c2)[C@@H](C(=O)Nc2ccccc2S(C)(=O)=O)C1=O [Compound 920] | 0 | 0 | 0 | 0 | 0 | 0 | 20 | 0 | 0 | 0 | 40 | 0 | 0 | 0 | 0 | 0 |
| CN1CC[C@H](c2cccc(Cl)c2)[C@@H](C(=O)Nc2cccc(F)c2F)C1=O [Compound 921] | 0 | 85 | 20 | 90 | 0 | 0 | 90 | 0 | 20 | 0 | 90 | 0 | 0 | 20 | 20 | 20 |

From patent publication US12077503B2, “Substituted cyclic amides and their use as herbicides” (FMC CORPORATION, priority 2015, dated 2024)
